Laboratory results published in patent US20250041279A1, “THERAPEUTIC MEDICINE FOR HEART DISEASE OR SKELETAL MUSCLE DISEASE” (SHIONOGI & CO., LTD., priority 2021, published 2025).
pIC50: −log10 of the molar value. Read-outs that look alike come from different tables or passages of the source.

Key:
recombinant human ACC1 = recombinant human ACC1 (Homo sapiens (Human), UniProt Q13085); test: Measurement of inhibitory activity of human ACC1 (MALDI-TOF MS); assay type: biochemical; conditions: read-out: IC50 hACC1
Text: A cDNA encoding human ACC1 protein (1 amino acid residue to 2346 amino acid residues from the N-terminus) was cloned from a human liver cDNA library (BioChain Institute Inc.), myc tag and His-tag sequences were introduced at the 3′ end, and then inserted into pIEXBAC3 (Novagen). A recombinant baculovirus was produced in accordance with the protocol for Flash BACGOLD (Oxford Expression Technologies Ltd.), and Sf-9 cells were infected therewith to express human ACC1 protein. The recovered cells were crushed, filtered through a filter, and then subjected to Ni affinity chromatography and anion exchange chromatography. Fractions containing human ACC1 protein were collected to obtain recombinant human ACC1.
The recombinant human ACC1 and the recombinant human ACC2 obtained from the above Preparation Examples were preincubated in an assay buffer (50 mM HEPES-KOH (pH 7.4), 10 mM magnesium chloride, 6 to 10 mM potassium citrate, 4 mM glutathione reduced form, and 1.5 mg/ml bovine serum albumin) for 1 hour. Then, 5 μL of the pre-incubated enzyme solution and 5 μL of a substrate solution (50 mM HEPES-KOH (pH 7.4), 1 mM ATP, 0.8 mM acetyl-CoA, and 25 to 50 mM potassium bicarbonate) were added to a 384-well microplate into which 0.2 μl of each of solutions of the compound of the present invention (DMSO had been dispensed, and the mixture was centrifuged and shaken, and then incubated in a wet box at room temperature for 1 to 3 hours. After incubation, the enzymatic reaction was stopped by addition of EDTA, and then the sample was co-crystallized with an α-cyano-4-hydroxy cinnamic acid (CHCA) matrix on a MALDI target plate, and measurement was performed in a reflector negative mode using a matrix-assisted laser desorption ionization-time-of-flight mass spectrometer (MALDI-TOF MS). Deprotonated ions of the substrate acetyl-CoA (AcCoA) and the reaction product malonyl-CoA (MalCoA) were detected, and the intensity of each signal was used to calculate a conversion rate to malonyl-CoA or succinyl-CoA, i.e., intensity of [MalCoA-H]—/(intensity of [MalCoA-H]-+intensity of [AcCoA.H].). […] The potassium citrate concentration in the assay buffer, the potassium bicarbonate concentration in the substrate solution, and the incubation time were adjusted within the above concentrations or reaction times for each lot of the enzyme to be used.

[1] = Metabolic stability test, rat; assay type: in vitro ADME; conditions: 30 minutes
[2] = Metabolic stability test, human liver microsomes; assay type: in vitro ADME; conditions: 37° C., 30 minutes, NADPH
Experimental: Commercially available pooled human liver microsomes were reacted with the compound of the present invention for a given time. A residual rate was calculated by comparison between the reacted sample and the unreacted sample to evaluate a degree at which the compound of the present invention is metabolized in the liver.
The compound was reacted at 37° C. for 0 minutes or 30 minutes in the presence of 1 mmol/L NADPH in 0.2 mL of a buffer (50 mmol/L Tris-HCl pH 7.4, 150 mmol/L potassium chloride, and 10 mmol/L magnesium chloride) containing 0.5 mg protein/mL of the human liver microsomes (oxidative reaction). After the reaction, 50 μL of the reaction solution was added to 100 μL of a solution of methanol/acetonitrile=1/1 (v/v) and mixed, and the mixture was centrifuged at 3000 rpm for 15 minutes. The compound of the present invention in the centrifuged supernatant was quantified by LC/MS/MS or solid-phase extraction (SPE)/MS. The amount of the compound of the present invention remained after the reaction was calculated with the amount of the compound at 0 minutes of the reaction defined as 100%.

recombinant human ACC2 = recombinant human ACC2 (Homo sapiens (Human), UniProt O00763); test: Measurement of inhibitory activity of human ACC2 (MALDI-TOF MS); assay type: biochemical; conditions: read-out: IC50 hACC2
Text: A cDNA encoding human ACC2 protein (27 amino acid residues to 2458 amino acid residues from the N-terminus) was cloned from a human kidney cDNA library (Clontech Laboratories, Inc.), a His-tag sequence was introduced at the 5′ end, and then inserted into pFastBac1 (Invitrogen). A recombinant baculovirus was produced in accordance with the protocol for a Bac-to-Bac baculovirus expression system (Invitrogen), and Sf-9 cells were infected therewith to express human ACC2 protein. The recovered cells were crushed, filtered through a filter, and then subjected to Ni affinity chromatography and anion exchange chromatography. Fractions containing human ACC2 protein were collected to obtain recombinant human ACC2.
The recombinant human ACC1 and the recombinant human ACC2 obtained from the above Preparation Examples were preincubated in an assay buffer (50 mM HEPES-KOH (pH 7.4), 10 mM magnesium chloride, 6 to 10 mM potassium citrate, 4 mM glutathione reduced form, and 1.5 mg/ml bovine serum albumin) for 1 hour. […] Deprotonated ions of the substrate acetyl-CoA (AcCoA) and the reaction product malonyl-CoA (MalCoA) were detected, and the intensity of each signal was used to calculate a conversion rate to malonyl-CoA or succinyl-CoA, i.e., intensity of [MalCoA-H]—/(intensity of [MalCoA-H]-+intensity of [AcCoA.H].). […] The potassium citrate concentration in the assay buffer, the potassium bicarbonate concentration in the substrate solution, and the incubation time were adjusted within the above concentrations or reaction times for each lot of the enzyme to be used.

NAFLD patients = conditions: cited from earlier work
healthy subjects = conditions: repeated administration to healthy subjects; cited from earlier work

recombinant human ACC2, sequence (O00763 27-2458): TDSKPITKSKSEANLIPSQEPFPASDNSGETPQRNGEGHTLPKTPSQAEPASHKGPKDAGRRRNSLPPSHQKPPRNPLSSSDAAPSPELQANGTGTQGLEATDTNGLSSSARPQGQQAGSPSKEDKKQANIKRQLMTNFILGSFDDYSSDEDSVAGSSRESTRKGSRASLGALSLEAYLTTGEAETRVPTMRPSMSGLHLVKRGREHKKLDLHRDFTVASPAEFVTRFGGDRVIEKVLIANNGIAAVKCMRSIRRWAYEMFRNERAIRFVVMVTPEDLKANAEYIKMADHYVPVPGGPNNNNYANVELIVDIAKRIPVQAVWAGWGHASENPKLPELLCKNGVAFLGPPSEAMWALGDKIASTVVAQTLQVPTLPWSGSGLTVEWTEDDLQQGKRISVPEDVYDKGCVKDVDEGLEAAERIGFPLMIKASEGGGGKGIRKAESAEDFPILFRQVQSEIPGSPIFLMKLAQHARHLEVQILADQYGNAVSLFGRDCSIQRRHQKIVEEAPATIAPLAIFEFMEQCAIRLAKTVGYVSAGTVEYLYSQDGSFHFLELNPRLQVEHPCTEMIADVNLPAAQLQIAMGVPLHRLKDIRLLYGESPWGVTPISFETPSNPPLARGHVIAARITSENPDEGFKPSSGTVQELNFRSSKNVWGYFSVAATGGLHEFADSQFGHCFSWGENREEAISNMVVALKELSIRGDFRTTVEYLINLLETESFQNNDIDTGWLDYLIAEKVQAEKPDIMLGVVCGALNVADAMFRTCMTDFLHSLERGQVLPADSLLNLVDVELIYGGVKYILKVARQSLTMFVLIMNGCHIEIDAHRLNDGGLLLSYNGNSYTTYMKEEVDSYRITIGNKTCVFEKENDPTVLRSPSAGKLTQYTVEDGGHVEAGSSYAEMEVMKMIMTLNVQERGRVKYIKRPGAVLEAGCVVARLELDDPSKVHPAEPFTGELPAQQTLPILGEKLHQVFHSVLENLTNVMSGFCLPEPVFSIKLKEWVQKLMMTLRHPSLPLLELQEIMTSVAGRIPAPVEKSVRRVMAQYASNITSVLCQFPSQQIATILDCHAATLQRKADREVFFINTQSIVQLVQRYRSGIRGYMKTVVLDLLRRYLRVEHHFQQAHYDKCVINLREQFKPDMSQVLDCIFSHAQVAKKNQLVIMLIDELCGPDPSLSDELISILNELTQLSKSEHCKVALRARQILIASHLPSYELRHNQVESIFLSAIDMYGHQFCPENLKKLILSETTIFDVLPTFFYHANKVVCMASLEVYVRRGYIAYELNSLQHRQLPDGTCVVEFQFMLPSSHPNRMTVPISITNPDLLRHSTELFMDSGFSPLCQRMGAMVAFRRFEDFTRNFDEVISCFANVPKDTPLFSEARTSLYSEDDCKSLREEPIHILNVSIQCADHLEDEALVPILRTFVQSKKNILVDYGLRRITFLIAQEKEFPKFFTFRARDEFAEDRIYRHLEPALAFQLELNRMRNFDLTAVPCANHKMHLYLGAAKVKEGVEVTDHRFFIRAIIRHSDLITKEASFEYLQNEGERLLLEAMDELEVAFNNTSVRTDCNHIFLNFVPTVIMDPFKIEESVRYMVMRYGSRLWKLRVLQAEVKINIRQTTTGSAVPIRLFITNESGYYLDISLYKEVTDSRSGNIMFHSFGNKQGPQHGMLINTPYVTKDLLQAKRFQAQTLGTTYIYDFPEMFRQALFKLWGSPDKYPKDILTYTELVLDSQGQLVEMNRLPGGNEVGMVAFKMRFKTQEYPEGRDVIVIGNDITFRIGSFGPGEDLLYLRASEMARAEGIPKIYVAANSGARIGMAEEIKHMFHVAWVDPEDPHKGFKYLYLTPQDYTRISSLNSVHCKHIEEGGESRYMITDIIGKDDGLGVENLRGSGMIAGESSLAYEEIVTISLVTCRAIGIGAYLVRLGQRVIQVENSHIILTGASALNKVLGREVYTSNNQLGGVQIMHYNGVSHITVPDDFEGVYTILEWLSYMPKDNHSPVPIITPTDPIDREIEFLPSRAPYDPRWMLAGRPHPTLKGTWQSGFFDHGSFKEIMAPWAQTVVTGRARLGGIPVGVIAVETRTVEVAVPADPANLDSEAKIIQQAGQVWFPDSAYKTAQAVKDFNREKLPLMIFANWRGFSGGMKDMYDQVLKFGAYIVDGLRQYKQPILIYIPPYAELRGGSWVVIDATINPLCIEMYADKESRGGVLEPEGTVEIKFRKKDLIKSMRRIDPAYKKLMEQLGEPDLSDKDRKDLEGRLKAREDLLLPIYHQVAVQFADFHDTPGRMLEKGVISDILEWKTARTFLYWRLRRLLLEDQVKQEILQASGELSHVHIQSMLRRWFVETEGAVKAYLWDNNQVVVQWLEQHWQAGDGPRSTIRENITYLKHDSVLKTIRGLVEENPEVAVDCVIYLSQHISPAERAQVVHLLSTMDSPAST

pIC50 (recombinant human ACC1) | Remaining amount of compound, Rat [1] | Remaining amount of compound, Human [2] | pIC50 (recombinant human ACC2) | Structure (SMILES) | Plasma triglyceride concentration (NAFLD patients) | platelet concentration (healthy subjects) | Plasma triglyceride concentration (NAFLD patients; phase II study over 12 weeks)
6.49 | – | – | – | CC(=O)N[C@@H](C)COC1CCC(Oc2nc3c(F)cc(OC4CCC4)cc3n2C)CC1 (stereo partly drawn) [Compound I-1] | – | – | –
5.55 | 82.6% | 80.3% | – | CC(=O)N[C@@H](C)COC1CCC(Oc2nc3c(Cl)cc(OC4CC4)cc3n2C)CC1 (stereo partly drawn) [Compound I-3] | – | – | –
5.57 | 87.3% | 93.4% | 8.33 | CC(=O)N[C@@H](CF)COC1CCC(Oc2nc3c(F)cc(OC4CC4)cc3n2C)CC1 (stereo partly drawn) [Compound I-4] | – | – | –
5.16 | 83.4% | 98.9% | 8.05 | Cn1c(OC2CCC(OC[C@H](CF)NC(N)=O)CC2)nc2c(F)cc(OC3CC3)cc21 (stereo partly drawn) [Compound I-5] | – | – | –
4.60 | 74.7% | 89.1% | 6.74 | CC(=O)N[C@@H](C)C(F)(F)C[C@H]1CCC(Oc2nc3c(F)cc(OCC(F)F)c(F)c3n2C)CO1 (stereo partly drawn) [Compound I-7] | – | – | –
5.21 | 85.4% | 83.6% | 7.77 | C[C@@H](COC1CCC(Oc2nc3c(Cl)cc(OC4CC4)cc3n2C)CC1)NC(N)=O (stereo partly drawn) [Compound I-8] | – | – | –
< 4.00 | – | – | 7.05 | CC(=O)N[C@@H](C)CC(F)(F)[C@@H]1CCC(Oc2nc3c(F)cc(OCC(F)F)c(F)c3n2C)CO1 (stereo partly drawn) [Compound I-10] | – | – | –
5.15 | 94.5% | 95.8% | 8.02 | C[C@@H](CCC1OCC(Oc2nc3c(F)cc(OCC(F)F)c(F)c3n2C)CO1)NC(N)=O (stereo partly drawn) [Compound I-11] | – | – | –
5.77 | 76.2% | 80.2% | 8.42 | CC(=O)N[C@@H](C)CCC1CCC(Oc2nc3c(F)cc(OC4CC4)cc3n2C)CC1 (stereo partly drawn) [Compound I-15] | – | – | –
– | – | – | – | COc1cc(C(=O)N2CCC3(CC2)CC(=O)c2cc(-c4cncc(C(=O)O)c4)ccc2O3)cc2c1c(C)cn2C1CC1 [MK-4074] | elevated | – | –
– | – | – | – | Cc1nc2ccc(C(=O)N3CCC4(CC3)CC(=O)c3c(cnn3C(C)C)C4)cc2[nH]1 [PF-05175157] | – | reduced | –
– | – | – | – | COc1ccccc1[C@H](Cn1c(=O)n(C(C)(C)C(=O)O)c(=O)c2c(C)c(-c3ncco3)sc21)OC1CCOCC1 [firsocostat] | – | – | elevated
